Our source for the DC50 and hepatocyte CLint values is patent publication US10125135B2, “Chemical compounds” (AstraZeneca AB, priority 2016, dated 2018).

Structures are written as SMILES.

Data set [1] concerns the target ERα receptor in MCF-7 human ductal carcinoma breast cell line (Homo sapiens (Human), UniProt P03372). In words: MCF-7 ER down regulation assay (immuno-fluorescence). The format is cell-based. Particulars: MCF-7 cells, 18-22 hours incubation; read-out: ER down regulation IC50 value.
Data set [2] in a line: Human hepatocyte assay (metabolic stability). The conditions noted are these: human hepatocytes, 37° C., 1.0×10^6 viable cells/mL; read-out: Clint (in vitro intrinsic clearance). It counts as in vitro ADME. How it is done: The metabolic stability of compounds in human hepatocytes was assessed using the following protocol: • 1. Prepare 10 mM stock solutions of compound and control compounds in appropriate solvent (DMSO). Place incubation medium (L-15Medium) in a 37° C. water bath, and allow warming for at least 15 minutes prior to use. • 2. Add 80 μL of acetonitrile to each well of the 96-well deep well plate (quenching plate). • 3. In a new 96-well plate, dilute the 10 mM test compounds and the control compounds to 100 μM by combining 198 μL of acetonitrile and 2 μL of 10 mM stock. • 4. Remove a vial of cryopreserved (less than −150° C.) human hepatocytes (LiverPool™ 10 Donor Human hepatocytes obtained from Celsis IVT. Chicago, Ill. (Product No. S01205)) from storage, ensuring that vials remain at cryogenic temperatures until thawing process ensues. As quickly as possible, thaw the cells by placing the vial in a 37° C. water bath and gently shaking the vials. Vials should remain in water bath until all ice crystals have dissolved and are no longer visible. After thawing is completed, spray vial with 70% ethanol, transfer the vial to a bio-safety cabinet. • 5. Open the vial and pour the contents into the 50 mL conical tube containing thawing medium. Place the 50 mL conical tube into a centrifuge and spin at 100 g for 10 minutes. […] Using Cellometer® Vision, count cells and determine the viable cell density. Cells with poor viability (<80% viability) are not acceptable for use. Dilute cells with incubation medium to a working cell density of 1.0×10^6 viable cells/mL. • 7. Transfer 247.5 μL of hepatocytes into each well of a 96-well cell culture plate. Place the plate on Eppendorf Thermomixer Comfort plate shaker to allow the hepatocytes to warm for 10 minutes. • 8. Add 2.5 μL of 100 μM test compound or control compounds into an incubation well containing cells, mix to achieve a homogenous suspension at 0.5 min, which when achieved, will define the 0.5 min time point. At the 0.5 min time, transfer 20 μL incubated mixture to wells in a “Quenching plate” followed by vortexing. • 9. Incubate the plate at 37° C. at 900 rpm on an Eppendorf Thermomixer Comfort plate shaker. At 5, 15, 30, 45, 60, 80, 100 and 120 min, mix the incubation system and transfer samples of 20 μL incubated mixture at each time point to wells in a separate “Quenching plate” followed by vortexing. • 10. Centrifuge the quenching plates for 20 minutes at 4,000 rpm. 4 different compounds are pooled into one cassette and used for LC/MS/MS analysis.
All calculations are carried out using Microsoft Excel. Peak areas are determined from extracted ion chromatograms. In vitro intrinsic clearance (in vitro Clint, in μL/min/10^6 cells) of parent compound is determined by regression analysis of the Ln percent parent disappearance vs. time curve. The in vitro intrinsic clearance (in vitro Clint, in μL/min/10^6 cells) is determined from the slope value using the following equation and is shown in Table C:
V=incubation volume (0.25 mL);
N=number of hepatocytes per well (0.25×10 ^6 cells).

Sequence of ERα receptor in MCF-7 human ductal carcinoma breast cell line (P03372 whole entry): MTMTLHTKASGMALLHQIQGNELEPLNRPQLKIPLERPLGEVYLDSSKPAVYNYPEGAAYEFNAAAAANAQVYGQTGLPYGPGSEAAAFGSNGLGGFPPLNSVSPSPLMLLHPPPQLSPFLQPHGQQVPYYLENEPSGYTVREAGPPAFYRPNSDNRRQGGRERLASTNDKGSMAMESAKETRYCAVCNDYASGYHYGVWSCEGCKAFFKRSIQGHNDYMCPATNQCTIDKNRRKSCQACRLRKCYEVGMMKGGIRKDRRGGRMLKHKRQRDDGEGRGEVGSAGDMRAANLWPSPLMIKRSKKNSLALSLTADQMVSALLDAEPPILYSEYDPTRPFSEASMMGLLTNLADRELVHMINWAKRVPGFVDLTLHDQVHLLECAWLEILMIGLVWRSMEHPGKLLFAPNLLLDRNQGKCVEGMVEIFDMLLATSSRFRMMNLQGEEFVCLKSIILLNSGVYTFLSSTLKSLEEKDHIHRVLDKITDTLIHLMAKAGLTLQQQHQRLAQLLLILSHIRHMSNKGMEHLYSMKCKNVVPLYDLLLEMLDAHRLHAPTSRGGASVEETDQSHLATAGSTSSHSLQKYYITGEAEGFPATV

For the compound `COc1cc(OCCN2CC(CF)C2)ccc1[C@@H]1c2ccc3[nH]ncc3c2C[C@@H](C)N1CC1(F)CC1` [Example 6, (6S,8R)-7-((1-fluorocyclopropyl)methyl)-6-(4-(2-(3-(fluoromethyl)azetidin-1-yl)ethoxy)-2-methoxyphenyl)-8-methyl-6,7,8,9-tetrahydro-3H-pyrazolo[4,3-f]isoquinoline], in data set [1], the DC50 came out at 0.13 nM. Moreover, the hepatocyte CLint at 1 µM in data set [2] came to 7 µL/min/1e6 cells.
In the same order, the values of `COc1cc(OCCN2CC(CF)C2)ccc1[C@@H]1c2ccc3[nH]ncc3c2C[C@@H](C)N1CC(C)C` [Example 9, (6S,8R)-6-(4-(2-(3-(fluoromethyl)azetidin-1-yl)ethoxy)-2-methoxyphenyl)-7-isobutyl-8-methyl-6,7,8,9-tetrahydro-3H-pyrazolo[4,3-f]isoquinoline] are 0.5 nM and 3 µL/min/1e6 cells.
On the same counts, the results for `C[C@@H]1Cc2c(ccc3[nH]ncc23)[C@@H](c2ccc(OCCN3CC(CF)C3)cn2)N1CC(F)F` [Example 51, (6S,8R)-7-(2,2-difluoroethyl)-6-(5-(2-(3-(fluoromethyl)azetidin-1-yl)ethoxy)pyridin-2-yl)-8-methyl-6,7,8,9-tetrahydro-3H-pyrazolo[4,3-f]isoquinoline] are 0.54 nM and 5 µL/min/1e6 cells.
In the same order, the values of `C[C@@H]1Cc2c(ccc3[nH]ncc23)[C@@H](c2ccc(OCCN3CC(CF)C3)cn2)N1CC(F)(F)F` [Example 49, (6S,8R)-6-(5-(2-(3-(fluoromethyl)azetidin-1-yl)ethoxy)pyridin-2-yl)-8-methyl-7-(2,2,2-trifluoroethyl)-6,7,8,9-tetrahydro-3H-pyrazolo[4,3-f]isoquinoline] are 0.21 nM and 3 µL/min/1e6 cells.
Take `COc1cc(OCCN2CC(CF)C2)ccc1[C@@H]1c2ccc3[nH]ncc3c2C[C@@H](C)N1CC(C)(C)F` [Example 5, (6S,8R)-7-(2-fluoro-2-methylpropyl)-6-(4-(2-(3-(fluoromethyl)azetidin-1-yl)ethoxy)-2-methoxyphenyl)-8-methyl-6,7,8,9-tetrahydro-3H-pyrazolo[4,3-f]isoquinoline]: the DC50 in data set [1] was 0.16 nM. Moreover, the hepatocyte CLint at 1 µM in data set [2] was determined as 12 µL/min/1e6 cells.
Regarding `C[C@@H]1Cc2c(ccc3[nH]ncc23)[C@@H](c2ccc(OCCN3CC(CF)C3)cn2)N1CC1(F)CC1` [Example 8, (6S,8R)-7-((1-fluorocyclopropyl)methyl)-6-(5-(2-(3-(fluoromethyl)azetidin-1-yl)ethoxy)pyridin-2-yl)-8-methyl-6,7,8,9-tetrahydro-3H-pyrazolo[4,3-f]isoquinoline], the DC50 in data set [1] is 0.39 nM. In data set [2], the hepatocyte CLint at 1 µM came out at 8 µL/min/1e6 cells.
